These results are taken from DBAASP.

Among the test systems are Candida glabrata 0902; Acinetobacter baumannii; Proteus mirabilis 090223; Escherichia coli 1342; Aeromonas sobria 090223; Klebsiella pneumoniae; Staphylococcus sp.; Escherichia coli AB94012; Escherichia coli DC2; Candida albicans M9; Escherichia coli K-12; Staphylococcus aureus; Bacillus anthracis; Escherichia coli; Bacillus cereus.
Holding throughout (assay): ≥ marks a high value that may be exact or a test limit, other limits are often not marked, values filed in µg/mL are converted to µM
Assay [1] concerns Escherichia coli ATCC 25922.
Assay [2] deals with Enterococcus faecium 1299.
Assay [3] relates to Candida albicans ATCC 2002.
Assay [4] relates to Staphylococcus aureus ATCC 2592.
Assay [5] deals with Nocardia asteroides 090312.
Assay [6] deals with Staphylococcus aureus 1349.
Assay [7] relates to Staphylococcus aureus 090223.
Assay [8] concerns Stenotrophomonas maltophilia 090223.
Assay [9] relates to Staphylococcus aureus ATCC 6538.
The test system of assay [10] is Escherichia coli ATCC 8739.
The subject of assay [11] is Pseudomonas aeruginosa ATCC 9027.
Assay [12] deals with Bacillus subtilis ATCC 9372.
Assay [13] relates to Proteus vulgaris NCTC 4635.
The subject of assay [14] is Staphylococcus aureus AB94004.
Assay [15] deals with Bacillus thuringiensis AB92037.
Assay [16] concerns Bacillus subtilis AB91021.
The test system of assay [17] is Pseudomonas aeruginosa AB93066.
The subject of assay [18] is Salmonella enterica subsp. enterica serovar Typhimurium LT2.
Assay [19] concerns Staphylococcus aureus ATCC 25923.
In assay [20] the test system is Salmonella enterica serovar Minnesota R595.
Assay [21] deals with Salmonella typhimurium 1102.
The test system of assay [22] is Salmonella enterica serovar Minnesota 1114W.
The subject of assay [23] is Staphylococcus aureus 209P.

In brackets after ≈: the same amount, converted by molar mass. Several values for one entry are separate records, joined by “and”; a condition that tells them apart may be missing. Equal values may be shown once.

As a reminder, the MIC is the least concentration at which growth counts as inhibited. A low value points to a more susceptible organism.

As for `CC[C@H](C)[C@@H]1NC(=O)[C@H](CCSC)NC(=O)[C@@H](NC(=O)[C@H](CC(C)C)NC(=O)[C@H](CC(C)C)NC(=O)[C@H](CO)NC(=O)[C@@H]2CCCN2C(=O)[C@H](CC(C)C)NC(=O)[C@H](CC(C)C)NC(=O)[C@H](CCCCN)NC(=O)[C@@H](NC(=O)[C@@H](NC(=O)[C@H](C)NC(=O)CNC(=O)[C@H](CC(C)C)NC(=O)[C@H](C)NC(=O)[C@@H](N)Cc2ccccc2)C(C)C)[C@@H](C)O)CSSC[C@@H](C(=O)O)NC(=O)[C@H](CCCCN)NC(=O)[C@H](CCCN=C(N)N)NC(=O)[C@H]([C@@H](C)O)NC1=O` [FALGAVTKLLPSLLCMITRKC], the minimum inhibitory concentration (MIC) in [1] was 32.9 µM (≈ 74.9 µg/mL); in assay [2], 2.06 µM (≈ 4.7 µg/mL); against Candida glabrata 0902 it was no less than 32.9 µM; in the assay on Acinetobacter baumannii, 8.25 µM (≈ 18.8 µg/mL); against Proteus mirabilis 090223 it was 8.25 µM (≈ 18.8 µg/mL); against Escherichia coli 1342 it was 4.12 µM (≈ 9.39 µg/mL). Also, the MIC in [3] came out at 1.01 µM (≈ 2.3 µg/mL); in assay [4] it was 8.25 µM (≈ 18.8 µg/mL); against Aeromonas sobria 090223 it was 8.25 µM (≈ 18.8 µg/mL); in assay [5] it was 8.25 µM (≈ 18.8 µg/mL); against Klebsiella pneumoniae it was 32.9 µM (≈ 74.9 µg/mL); in [6] it was 16.5 µM (≈ 37.5 µg/mL). Moreover, the minimum inhibitory concentration (MIC) was found to be 2.06 µM (≈ 4.7 µg/mL) in assay [7] and 4.12 µM (≈ 9.39 µg/mL) in [8].
Regarding `CC[C@H](C)[C@H](NC(=O)[C@@H](NC(=O)[C@H](CO)NC(=O)[C@H](C)NC(=O)[C@@H](NC(=O)[C@H](CCCCN)NC(=O)[C@H](CCCCN)NC(=O)[C@@H](NC(=O)[C@@H](NC(=O)[C@H](C)NC(=O)[C@H](Cc1ccccc1)NC(=O)[C@H](CC(C)C)NC(=O)CN)C(C)C)[C@@H](C)CC)C(C)C)C(C)C)C(=O)NCC(=O)O` [GLFAVIKKVASVIG], the MIC in [9] was 22.8 µM (≈ 32 µg/mL); in assay [10] it was no less than 45.7 µM; in assay [11] it was 183 µM (≈ 256 µg/mL); in assay [12] it was 5.71 µM (≈ 8 µg/mL); in [13], no less than 183 µM.
For the compound `CC[C@H](C)[C@H](NC(=O)[C@H](CC(C)C)NC(=O)[C@H](CO)NC(=O)[C@@H]1CCCN1C(=O)[C@@H](NC(=O)[C@H](CC(C)C)NC(=O)CNC(=O)[C@H](Cc1ccccc1)NC(=O)[C@@H](N)CC(C)C)[C@@H](C)CC)C(=O)NCC(=O)NCC(=O)N[C@@H](CC(C)C)C(=O)N[C@H](C(=O)N[C@@H](CO)C(=O)N[C@@H](C)C(=O)N[C@@H](Cc1ccccc1)C(=O)N[C@@H](CCCCN)C(N)=O)C(C)C` [LFGLIPSLIGGLVSAFK], the MIC in assay [14] was 14.4 µM (≈ 25 µg/mL); in assay [15], 14.4 µM (≈ 25 µg/mL); in the assay on Staphylococcus sp., 14.4 µM (≈ 25 µg/mL); in assay [16], 28.9 µM (≈ 50 µg/mL); in the assay on Escherichia coli AB94012, no less than 57.7 µM; in assay [17], no less than 57.7 µM.
Turning to `CC[C@H](C)[C@@H]1NC(=O)CNC(=O)[C@H](CCCN=C(N)N)NC(=O)[C@H](Cc2ccc(O)cc2)NC(=O)[C@@H]2CSSC[C@H](NC1=O)C(=O)N[C@@H](Cc1ccc(O)cc1)C(=O)N[C@@H](CCCN=C(N)N)C(=O)N[C@@H](CCCCN)C(=O)N[C@H](C(=O)N[C@@H](CCCN=C(N)N)C(N)=O)CSSC[C@H](NC(=O)[C@H](Cc1c[nH]c3ccccc13)NC(=O)[C@@H](N)CCCN=C(N)N)C(=O)N[C@@H](Cc1ccccc1)C(=O)N[C@@H](CCCN=C(N)N)C(=O)N[C@@H](C(C)C)C(=O)N2` [RWCFRVCYRGICYRKCR], the minimum inhibitory concentration (MIC) in assay [18] was 0.982 µM (≈ 2.22 µg/mL); in [1], 0.25 µM (≈ 0.566 µg/mL); in the assay with Escherichia coli DC2, 0.707 µM (≈ 1.6 µg/mL); in [9], 5.66 µM (≈ 12.8 µg/mL); in assay [19] it was 5.51 µM and 2 µM; in [20], 0.705 µM (≈ 1.6 µg/mL). Also, the MIC in assay [21] was found to be 0.982 µM (≈ 2.22 µg/mL); in the assay with Candida albicans M9, 1.37 µM (≈ 3.09 µg/mL); in assay [22], 2.78 µM (≈ 6.29 µg/mL); in assay [23], 2.78 µM (≈ 6.29 µg/mL); against Escherichia coli K-12, 0.982 µM (≈ 2.22 µg/mL).
`CC[C@H](C)[C@H](NC(=O)[C@H](Cc1cnc[nH]1)NC(=O)[C@@H](N)[C@@H](C)O)C(=O)N[C@@H](Cc1cnc[nH]1)C(=O)N[C@@H](CCSC)C(=O)N[C@@H](CC(N)=O)C(=O)N[C@@H](C)C(=O)N[C@@H](CCCN=C(N)N)C(=O)N[C@@H](CC(C)C)C(=O)N[C@@H](CC(C)C)C(=O)N[C@H](C(=O)N[C@@H](CCCN=C(N)N)C(=O)N[C@@H](CO)C(=O)N1CCC[C@H]1C(=O)N[C@@H](Cc1ccccc1)C(=O)N[C@H](C(=O)N[C@@H](CC(=O)O)C(=O)N1CCC[C@H]1C(=O)N[C@@H](CCC(N)=O)C(=O)N[C@@H](CC(C)C)C(=O)O)[C@@H](C)O)[C@@H](C)CC` [THIHMNARLLIRSPFTDPQL]: the MIC against Staphylococcus aureus is greater than 108 µM; against Bacillus anthracis, no less than 108 µM; with Escherichia coli, greater than 108 µM; against Bacillus cereus it was no less than 108 µM.
